Source: article PMC9610298, “Synthesis, Biological Evaluation and Machine Learning Prediction Model for Fluorinated Cinchona Alkaloid-Based Derivatives as Cholinesterase Inhibitors” (Pharmaceuticals, 2022)

How the values were obtained:
recombinant human AChE = recombinant human AChE (Homo sapiens, UniProt P22303); experiment: Reversible inhibition of AChE, Ellman method, enzyme-inhibitor dissociation constants; format: biochemical; conditions: ± standard error; ATCh substrate, 25 °C, pH 7.4
Protocol: (§1) As a source of BChE, a purified human BChE, and as AChE, a recombinant human AChE was used, both enzymes kindly provided by Dr. F. Nachon (Département de Toxicologie, Armed Forces Biomedical Research Institute, France). The concentrated stocks of enzymes (BChE: 5.6 µM; AChE: 0.20 µM) were diluted in a phosphate sodium buffer 0.1 M (pH 7.4) containing 0.1% BSA before starting the experiments.
(§2) Enzyme activities were measured spectrophotometrically by the Ellman method at […] using 0.30 mM DTNB as thiol reagent, ATCh as substrate and water in 0.1 M phosphate buffer, pH 7.4. For the inhibition measurements, the reaction mixture contained tested compounds instead of water. […] Measurements were done at 25 °C on a Tecan Infinite M200Pro plate reader (Austria). A detailed description of measurement protocol was described previously.
(§3) The reversible inhibition of BChE and AChE by tested compounds was measured by determining the decrease of enzyme activity towards ATCh in their presence. The activities of the enzymes were measured at different substrate concentrations ([S]; 0.050–0.50 mM) in the absence (v0) and presence (vi) of the given tested compounds concentration ([I]; 0.050–200 µM, depending on the compound) selected to inhibit the enzymes for 20–80%. At least three concentrations of inhibitors for each substrate concentration were used in at least three experiments. The apparent dissociation inhibition constant (Ki,app) was calculated applying the Hunter-Downs equation and linear regression analysis (1):(1) Ki,app=vi/v0−vi⋅I=KI+KI/KS⋅S where y-intercept determines the enzyme-inhibitor dissociation constants (K(I)), while x-intercept determines the enzyme-substrate dissociation constant, K(S). The determination of kinetic constants was carried out using the GraphPadPrism 6.0 program (GraphPad Software, San Diego, CA, USA).

purified human BChE = purified human BChE (Homo sapiens, UniProt P06276); experiment: Reversible inhibition of BChE, Ellman method, enzyme-inhibitor dissociation constants; format: biochemical; conditions: for SI, selective index Ki(AChE)/Ki(BChE): times higher preference for BChE over AChE
Protocol: as §1, §2, §3

[1] = ± standard error, ATCh substrate, 25 °C, pH 7.4

Chain of purified human BChE (P06276 29-602): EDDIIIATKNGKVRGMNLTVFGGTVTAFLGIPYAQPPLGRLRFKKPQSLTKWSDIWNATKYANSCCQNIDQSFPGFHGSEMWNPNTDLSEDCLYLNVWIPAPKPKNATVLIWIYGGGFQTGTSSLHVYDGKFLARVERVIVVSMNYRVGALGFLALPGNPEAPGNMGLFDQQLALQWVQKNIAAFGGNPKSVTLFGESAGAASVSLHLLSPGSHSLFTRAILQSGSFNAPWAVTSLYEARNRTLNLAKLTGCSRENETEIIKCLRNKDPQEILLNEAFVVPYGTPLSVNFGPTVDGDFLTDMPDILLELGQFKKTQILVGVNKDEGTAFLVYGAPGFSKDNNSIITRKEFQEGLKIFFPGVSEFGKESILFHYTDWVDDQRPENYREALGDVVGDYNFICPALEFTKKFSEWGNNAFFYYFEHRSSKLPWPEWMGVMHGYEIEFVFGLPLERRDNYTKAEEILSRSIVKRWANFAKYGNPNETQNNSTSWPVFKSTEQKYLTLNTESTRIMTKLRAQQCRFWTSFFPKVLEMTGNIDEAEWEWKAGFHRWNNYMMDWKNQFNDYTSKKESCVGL
Chain of recombinant human AChE (P22303 32-614): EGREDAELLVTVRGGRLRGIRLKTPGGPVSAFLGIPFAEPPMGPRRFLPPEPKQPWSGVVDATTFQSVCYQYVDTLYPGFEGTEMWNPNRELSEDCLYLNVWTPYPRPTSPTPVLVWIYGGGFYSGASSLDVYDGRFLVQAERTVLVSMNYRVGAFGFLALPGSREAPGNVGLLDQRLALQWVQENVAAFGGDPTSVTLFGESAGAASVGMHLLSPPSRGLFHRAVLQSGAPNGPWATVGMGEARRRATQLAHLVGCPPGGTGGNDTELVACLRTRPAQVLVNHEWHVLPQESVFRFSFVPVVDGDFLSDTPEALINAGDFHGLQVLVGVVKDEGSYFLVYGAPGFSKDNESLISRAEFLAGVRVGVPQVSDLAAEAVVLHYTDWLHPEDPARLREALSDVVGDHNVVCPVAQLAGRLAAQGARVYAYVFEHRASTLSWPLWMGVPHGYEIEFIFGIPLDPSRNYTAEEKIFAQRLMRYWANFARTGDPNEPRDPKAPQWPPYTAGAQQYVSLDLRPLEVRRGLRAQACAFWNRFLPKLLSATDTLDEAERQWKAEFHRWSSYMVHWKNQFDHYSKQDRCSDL

SMILES | Ki (recombinant human AChE) | SI, selective index Ki(AChE)/Ki(BChE) (purified human BChE) | Ki (purified human BChE; [1]) | Stereoselectivity Ki(CN/CD) BChE (purified human BChE; ratio > 1: higher affinity toward CD over CN pseudo-enantiomer) | Ki (purified human BChE; stated in text as around) | times higher affinity of BChE for DHCN over DHCD (purified human BChE; unsubstituted 10,11-dihydro compounds)
CCC1C[N+]2(Cc3cccc(C(F)(F)F)c3)CCC1C[C@H]2[C@H](O)c1ccnc2ccccc12 (stereo partly shown) [DHCD 3CF3, N-(3-trifluoromethylbenzyl)-10,11-dihydrocinchonidinium bromide] | 25 ± 1 µM | 18 | 1.4 ± 0.1 µM |  |  | 
C=CC1C[N+]2(Cc3ccc(F)cc3)CCC1C[C@@H]2[C@@H](O)c1ccnc2ccccc12 (stereo partly shown) [CN 4F, N-(para-fluorobenzyl)cinchoninium bromide] | 3.9 ± 0.2 µM | 1.5 | 2.6 ± 0.1 µM |  |  | 
C=CC1C[N+]2(Cc3ccc(F)cc3F)CCC1C[C@@H]2[C@@H](O)c1ccnc2ccccc12 (stereo partly shown) [CN 2,4F, N-(2,4-difluorobenzyl)cinchoninium bromide] | 27 ± 1 µM | 4.5 | 6 ± 0.2 µM |  |  | 
C=CC1C[N+]2(Cc3c(F)cccc3Cl)CCC1C[C@H]2[C@H](O)c1ccnc2ccccc12 (stereo partly shown) [CD 2Cl-6F, N-(2-chloro-6-fluorobenzyl)cinchonidinium bromide] | 9.9 ± 0.8 µM | 1.9 | 5 ± 0.3 µM |  |  | 
C=CC1C[N+]2(Cc3ccccc3)CCC1C[C@H]2[C@H](O)c1ccnc2ccccc12 (stereo partly shown) [CD Bzl] | 15 ± 2 µM | 200 | 0.075 ± 0.007 µM |  |  | 
C=CC1C[N+]2(Cc3ccc(OC(F)(F)F)cc3)CCC1C[C@H]2[C@H](O)c1ccnc2ccccc12 (stereo partly shown) [CD 4OCF3] | 7.3 ± 0.5 µM | 0.96 | 7.6 ± 0.5 µM |  |  | 
C=CC1C[N+]2(Cc3c(F)cccc3C(F)(F)F)CCC1C[C@H]2[C@H](O)c1ccnc2ccccc12 (stereo partly shown) [CD 2F-6CF3, N-(2-fluoro-6-trifluoromethylbenzyl)cinchonidinium bromide] | 35 ± 4 µM | 6.1 | 5.7 ± 0.6 µM |  |  | 
C=CC1C[N+]2(Cc3c(F)cccc3F)CCC1C[C@H]2[C@H](O)c1ccnc2ccccc12 (stereo partly shown) [CD 2,6F] | 7.7 ± 0.5 µM | 0.77 | 9.9 ± 0.4 µM |  |  | 
C=CC1C[N+]2(Cc3ccccc3F)CCC1C[C@@H]2[C@@H](O)c1ccnc2ccccc12 (stereo partly shown) [CN 2F] | 80 ± 2 µM | 33 | 2.4 ± 0.1 µM |  |  | 
C=CC1C[N+]2(Cc3cccc(F)c3F)CCC1C[C@@H]2[C@@H](O)c1ccnc2ccccc12 (stereo partly shown) [CN 2,3F, N-(2,3-difluorobenzyl)cinchoninium bromide] | 46 ± 3 µM | 4.8 | 9.6 ± 0.4 µM |  |  | 
CCC1C[N+]2(Cc3ccccc3)CCC1C[C@H]2[C@H](O)c1ccnc2ccccc12 (stereo partly shown) [DHCD Bzl] | 4.8 ± 0.4 µM | 12 | 0.4 ± 0.02 µM |  |  | 
C=CC1C[N+]2(Cc3cccc(OC(F)(F)F)c3)CCC1C[C@H]2[C@H](O)c1ccnc2ccccc12 (stereo partly shown) [CD 3OCF3] | 8.2 ± 1.1 µM | 1.1 | 7.4 ± 0.4 µM |  |  | 
C=CC1C[N+]2(Cc3cc(F)cc(F)c3)CCC1C[C@H]2[C@H](O)c1ccnc2ccccc12 (stereo partly shown) [CD 3,5F] | 10 ± 1 µM | 123 | 0.081 ± 0.01 µM | 78 | ~0.076 µM | 
C=CC1C[N+]2(Cc3c(F)cccc3F)CCC1C[C@@H]2[C@@H](O)c1ccnc2ccccc12 (stereo partly shown) [CN 2,6F, N-(2,6-difluorobenzyl)cinchoninium bromide] | 30 ± 2 µM | 5.8 | 5.2 ± 0.2 µM |  |  | 
C=CC1C[N+]2(Cc3cccc(F)c3F)CCC1C[C@H]2[C@H](O)c1ccnc2ccccc12 (stereo partly shown) [CD 2,3F] | 19 ± 1 µM | 25 | 0.75 ± 0.03 µM |  |  | 
CCC1C[N+]2(Cc3cccc(OC(F)(F)F)c3)CCC1C[C@H]2[C@H](O)c1ccnc2ccccc12 (stereo partly shown) [DHCD 3OCF3, N-(3-trifluoromethoxybenzyl)-10,11-dihydrocinchonidinium bromide] | 36 ± 1 µM | 5 | 6.8 ± 0.3 µM |  |  | 
CCC1C[N+]2(Cc3ccc(OC(F)(F)F)cc3)CCC1C[C@H]2[C@H](O)c1ccnc2ccccc12 (stereo partly shown) [DHCD 4OCF3, N-(4-trifluoromethoxybenzyl)-10,11-dihydrocinchonidinium bromide] | 17 ± 1 µM | 3 | 5.9 ± 0.2 µM |  |  | 
CCC1C[N+]2(Cc3cccc(C(F)(F)F)c3)CCC1C[C@@H]2[C@@H](O)c1ccnc2ccccc12 (stereo partly shown) [DHCN 3CF3] | 41 ± 2 µM | 34 | 1.2 ± 0.05 µM |  |  | 
C=CC1C[N+]2(Cc3ccc(F)cc3)CCC1C[C@H]2[C@H](O)c1ccnc2ccccc12 (stereo partly shown) [CD 4F] | 69 ± 3 µM | 46 | 1.5 ± 0.1 µM |  |  | 

SMILES | Ki (recombinant human AChE) | SI, selective index Ki(AChE)/Ki(BChE) (purified human BChE) | Ki (purified human BChE; [1]) | Stereoselectivity Ki(CN/CD) BChE (purified human BChE; ratio > 1: higher affinity toward CD over CN pseudo-enantiomer) | Ki (purified human BChE; stated in text as around) | times higher affinity of BChE for DHCN over DHCD (purified human BChE; unsubstituted 10,11-dihydro compounds)
C=CC1C[N+]2(Cc3ccc(OC(F)(F)F)cc3)CCC1C[C@@H]2[C@@H](O)c1ccnc2ccccc12 (stereo partly shown) [CN 4OCF3] | 19 ± 2 µM | 2.4 | 7.8 ± 0.3 µM |  |  | 
CCC1C[N+]2(Cc3cccc(F)c3)CCC1C[C@@H]2[C@@H](O)c1ccnc2ccccc12 (stereo partly shown) [DHCN 3F, N-(3-fluorobenzyl)-10,11-dihydrocinchoninium bromide] | 20 ± 1 µM | 20 | 1.2 ± 0.1 µM |  |  | 
CCC1C[N+]2(Cc3ccc(F)cc3)CCC1C[C@@H]2[C@@H](O)c1ccnc2ccccc12 (stereo partly shown) [DHCN 4F, N-(4-fluorobenzyl)-10,11-dihydrocinchoninium bromide] | 64 ± 2 µM | 40 | 1.6 ± 0.1 µM |  |  | 
C=CC1C[N+]2(Cc3cc(F)cc(F)c3)CCC1C[C@@H]2[C@@H](O)c1ccnc2ccccc12 (stereo partly shown) [CN 3,5F] | 34 ± 3 µM | 5.4 | 6.3 ± 0.2 µM |  |  | 
C=CC1C[N+]2(Cc3cccc(F)c3)CCC1C[C@@H]2[C@@H](O)c1ccnc2ccccc12 (stereo partly shown) [CN 3F] | 13 ± 0.4 µM | 2.1 | 6.1 ± 0.3 µM |  |  | 
C=CC1C[N+]2(Cc3ccc(F)c(F)c3)CCC1C[C@@H]2[C@@H](O)c1ccnc2ccccc12 (stereo partly shown) [CN 3,4F] | 14 ± 0.2 µM | 2.3 | 6.1 ± 0.2 µM |  |  | 
CCC1C[N+]2(Cc3cccc(F)c3)CCC1C[C@H]2[C@H](O)c1ccnc2ccccc12 (stereo partly shown) [DHCD 3F] | 27 ± 2 µM | 84 | 0.3 ± 0.02 µM |  |  | 
C=CC1C[N+]2(Cc3ccccc3)CCC1C[C@@H]2[C@@H](O)c1ccnc2ccccc12 (stereo partly shown) [CN Bzl] | 121 ± 12 µM | 42 | 2.9 ± 0.3 µM |  |  | 
C=CC1C[N+]2(Cc3cccc(OC(F)(F)F)c3)CCC1C[C@@H]2[C@@H](O)c1ccnc2ccccc12 (stereo partly shown) [CN 3OCF3, N-(3-trifluoromethoxybenzyl)cinchoninium bromide] | 41 ± 2 µM | 8.7 | 4.7 ± 0.2 µM |  |  | 
C=CC1C[N+]2(Cc3c(F)cccc3Cl)CCC1C[C@@H]2[C@@H](O)c1ccnc2ccccc12 (stereo partly shown) [CN 2Cl-6F, N-(2-chloro-6-fluorobenzyl)cinchoninium bromide] | 17 ± 1 µM | 14 | 1.2 µM |  |  | 
C=CC1C[N+]2(Cc3ccc(C(F)(F)F)cc3)CCC1C[C@@H]2[C@@H](O)c1ccnc2ccccc12 (stereo partly shown) [CN 4CF3] | 31 ± 1 µM | 5.2 | 6 ± 0.3 µM |  |  | 
CCC1C[N+]2(Cc3cccc(OC(F)(F)F)c3)CCC1C[C@@H]2[C@@H](O)c1ccnc2ccccc12 (stereo partly shown) [DHCN 3OCF3, N-(3-trifluoromethoxybenzyl)-10,11-dihydrocinchoninium bromide] | 68 ± 1 µM | 52 | 1.3 ± 0.5 µM |  |  | 
CCC1C[N+]2(Cc3ccc(C(F)(F)F)cc3)CCC1C[C@@H]2[C@@H](O)c1ccnc2ccccc12 (stereo partly shown) [DHCN 4CF3] | 18 ± 1 µM | 9 | 1.6 ± 0.1 µM |  |  | 
C=CC1C[N+]2(Cc3ccc(Br)cc3F)CCC1C[C@@H]2[C@@H](O)c1ccnc2ccccc12 (stereo partly shown) [CN 2F-4Br, N-(2-fluoro-4-bromobenzyl)cinchoninium bromide] | 16 ± 1 µM | 2.9 | 5.5 ± 0.3 µM |  |  | 
C=CC1C[N+]2(Cc3ccccc3F)CCC1C[C@H]2[C@H](O)c1ccnc2ccccc12 (stereo partly shown) [CD 2F] | 33 ± 1 µM | 40 | 0.82 ± 0.03 µM |  |  | 
C=CC1C[N+]2(Cc3c(F)cccc3C(F)(F)F)CCC1C[C@@H]2[C@@H](O)c1ccnc2ccccc12 (stereo partly shown) [CN 2F-6CF3, N-(2-fluoro-6-trifluoromethylbenzyl)cinchoninium bromide] | 61 ± 2 µM | 7.9 | 7.7 ± 0.4 µM |  |  | 
CCC1C[N+]2(Cc3ccc(OC(F)(F)F)cc3)CCC1C[C@@H]2[C@@H](O)c1ccnc2ccccc12 (stereo partly shown) [DHCN 4OCF3, N-(4-trifluoromethoxybenzyl)-10,11-dihydrocinchoninium bromide] | 22 ± 1 µM | 10 | 2.2 ± 0.1 µM |  |  | 
CC[C@H]1CN2CC[C@H]1C[C@@H]2[C@@H](O)c1ccnc2ccccc12 [DHCN, 10,11-dihydrocinchonine] |  |  | 1.2 ± 0.1 µM |  |  | 16
